“Also recorded” adds a separate entry of the source.
Experiments:
p53 in HCT116 cells = assay: p53 accumulation in cytosol and mitochondria (subcellular fractionation, Western blot); type: cell-based, Human; details: after drug treatment
Description: (§1) Western blotting, immunoprecipitation and microarray analysis: Cells were scraped, collected and lysed as described previously (Yu, Q., et al. Cancer Res, 62: 5743-5748, 2002). Briefly, cells were lysed with cell lysis buffer (0.3% NP40, 1 mM EDTA, 50 mM Tris-HCl (pH 7.4), 2 mM EGTA, 1% Triton X-100, […], 25 mM NaF, 1 mM Na3VO4, 2 mM AEBSF, 5 μg/ml aprotinin, 1 μg/ml leupeptin) for 30 minutes on ice, and the lysates were clarified by centrifugation at 12,000×g for 15 minutes at 4° C. Protein concentration was quantified (Bio-Rad, Hercules, Calif.) and protein samples (50 μg) were separated by SDS/PAGE and transferred onto Immobilon™ membranes (Millipore, Bedford, Mass.). Antibodies against the following proteins were used: p53 (DO-1), p21, PARP, GSK-α/β, α-Tubulin, and β-actin (Santa Cruz Biotechnology), Puma (Ab-1, Oncogene), Bax (Sigma), phosphor-(Ser9/21)-GSK-3α/β and Caspase-9 (Cell Signaling Technologies), phosphor-(Tyr216/279)-GSK-3α/β (Upstate Biotechnologies), cytochrome c (BD PharMingen). To detect Bax conformational change, cells were lysed in 1% Chaps buffer and the soluble fraction was immunoprecipitated with anti-Bax monoclonal antibody (6A7, BD, PharMingen), followed by immunoblotting with anti-Bax polyclonal antibody. Microarray analysis was performed as described (Kho, P. S., et al. J Biol Chem, 279: 21183-21192, 2004).
(§2) Subcellular fractionation: Cells were lysed in mitochondria lysis buffer (210 mM Mannitol, 70 mM Sucrose, 10 mM Hepes (pH, 7.4), 1 mM EDTA, protease inhibitor cocktail) with a Dounce homogenizer and subjected to centrifugation at 1000×g to pellet the nuclei. Post-nuclear supernatant was centrifuged at 10,000×g to pellet the mitochondria-enriched heavy membrane fraction, and the resulting supernatant was further centrifuged to obtain cytosolic fraction. Total proteins (30 μg) from cytosolic or mitochondrial fractions were subjected to immunoblot analysis.

[1] = system: p53 and p53 targets in HCT116 cells; assay: Immunoblot analyses of p53 and p53 targets; type: cell-based, Human; details: for cleavage of PARP: cells treated with genotoxic agents; for p53-mediated p21 induction / p53 accumulation / stability in response to DNA damage: with ADR, etoposide or 5-FU, HCT116 (LY2119301 also RKO)
Description: as §1

GSK-3β = target: T1, GSK-3β (Homo sapiens, UniProt P49841); assay: Immunoblot analysis of GSK-3 phosphorylation status in HCT116 cells; type: cell-based
T1 construct: endogenous in cells; host or cells: HCT116
T1 sequence (P49841 whole entry): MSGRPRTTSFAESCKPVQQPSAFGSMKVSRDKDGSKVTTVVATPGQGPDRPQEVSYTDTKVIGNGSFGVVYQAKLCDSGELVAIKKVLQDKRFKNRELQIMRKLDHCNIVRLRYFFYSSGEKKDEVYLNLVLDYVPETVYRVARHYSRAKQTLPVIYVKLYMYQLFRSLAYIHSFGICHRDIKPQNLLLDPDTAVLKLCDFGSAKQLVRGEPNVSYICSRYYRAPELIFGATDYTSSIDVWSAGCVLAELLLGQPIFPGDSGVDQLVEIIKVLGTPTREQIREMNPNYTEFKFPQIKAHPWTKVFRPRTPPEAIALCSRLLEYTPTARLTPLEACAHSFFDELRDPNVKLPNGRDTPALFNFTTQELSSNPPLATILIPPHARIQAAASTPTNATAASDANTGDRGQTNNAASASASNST
Description: (§3) Protein concentration was quantified (Bio-Rad, Hercules, Calif.) and protein samples (50 μg) were separated by SDS/PAGE and transferred onto Immobilon™ membranes (Millipore, Bedford, Mass.). […] To detect Bax conformational change, cells were lysed in 1% Chaps buffer and the soluble fraction was immunoprecipitated with anti-Bax monoclonal antibody (6A7, BD, PharMingen), followed by immunoblotting with anti-Bax polyclonal antibody.
as §2

GSK-3α = target: T2, GSK-3α (Homo sapiens, UniProt P49840); assay: as above; type: cell-based; details: HCT116 whole lysate immunoblot
T2 construct: endogenous in cells; host or cells: HCT116
T2 sequence (P49840 whole entry): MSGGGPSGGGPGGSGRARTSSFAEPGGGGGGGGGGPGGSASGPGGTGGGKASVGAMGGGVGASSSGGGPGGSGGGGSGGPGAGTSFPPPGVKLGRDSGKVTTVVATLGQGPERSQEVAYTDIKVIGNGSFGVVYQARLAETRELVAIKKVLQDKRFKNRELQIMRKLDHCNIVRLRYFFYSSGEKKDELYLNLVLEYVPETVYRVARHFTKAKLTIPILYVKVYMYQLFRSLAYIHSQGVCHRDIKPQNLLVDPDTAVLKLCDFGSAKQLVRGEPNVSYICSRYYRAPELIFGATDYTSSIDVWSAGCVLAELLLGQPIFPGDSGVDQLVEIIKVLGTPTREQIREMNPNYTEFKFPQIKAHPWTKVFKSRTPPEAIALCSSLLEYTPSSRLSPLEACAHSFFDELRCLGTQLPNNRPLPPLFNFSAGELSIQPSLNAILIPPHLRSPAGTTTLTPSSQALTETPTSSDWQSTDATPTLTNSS
Description: as §3, §2

HCT116 cells = assay: FACS analysis of DNA content (sub-G1 apoptotic fraction); type: cell-based, Human; details: for effect on ADR-treated cells (apoptosis): concentrations up to 20 μM, with ADR
Description: Cell culture and drug treatments: Human colon cancer cell line HCT116 and its derived isogenic p53^−/−, Puma^−/−, Bax^−/− and p53-inducible DLD cell lines were kindly provided by Dr. Bert Vogelstein (Johns Hopkins University, MD). RKO and RKO/E6 cells were from ATCC. Cells were cultured in DMEM containing 10% FBS. All culture reagents and media were from Invitrogen. 5-Fluorouracil, Adriamycin, etoposide and lithium chloride were purchased from Sigma. GSK-3β specific small molecule inhibitor LY2119301 was a gift from Eli Lilly (Indianapolis) and SB-216763, SB-415283 were obtained from BIOMOL.
FACS analysis of DNA content and caspase-3 activity: Cells were harvested and fixed in 70% ethanol. Fixed cells were stained with propidium iodide (50 μg/ml) after treatment with RNase (100 μg/ml). The stained cells were analyzed for DNA content by fluorescence-activated cell sorting (FACS) in a FACScalibur™ (Becton Dickinson Instrument, San Jose, Calif.). Cell cycle fractions were quantified using the CellQues™ software (Becton Dickinson). To measure caspase-3 activity, cells were fixed with Cytofix/Cytoperm™ solution (BD PharMingen) as instructed, and then stained with FITC-conjugated rabbit anti-active caspase-3 monoclonal antibody (BD PharMingen). Quantification of cells positive for the caspase-3 detection was performed by flow cytometry.

GSK-3α and GSK-3β = details: in vitro, Coghlan et al. 2000; cited from earlier work

| inhibitory serine 9 phosphorylation on GSK-3β (GSK-3β; HCT116 whole lysate immunoblot) | tyrosine phosphorylation of GSK-3β (GSK-3β; nuclear and cytoplasmic fractions) | activating tyrosine phosphorylation on GSK-3α (GSK-3α) | inhibitory serine 21 phosphorylation on GSK-3α (GSK-3α) | levels and phosphorylation states of cytosolic and nuclear GSK-3α and GSK-3β (GSK-3β; after etoposide treatment alone) | SMILES | time of p53 accumulation in the cytosol (not seen until) (p53 in HCT116 cells) [h] | time of p53 accumulation in the mitochondria (as early as) (p53 in HCT116 cells) [h] | cleavage of PARP [1] | p53-mediated p21 induction [1] | p53 accumulation / stability in response to DNA damage [1] | p53-mediated p21 induction ([1]; listed as SB-126763) | p53 accumulation / stability in response to DNA damage ([1]; listed as SB-126763) | effect on ADR-treated cells (apoptosis) (HCT116 cells) | inhibition of GSK-3α versus GSK-3β (GSK-3α and GSK-3β) | apoptosis by etoposide alone despite mitochondrial p53 accumulation (HCT116 cells; etoposide without GSK-3β inhibitor) |
| --- | --- | --- | --- | --- | --- | --- | --- | --- | --- | --- | --- | --- | --- | --- | --- |
| – | – | – | – | – | O=c1[nH]cc(F)c(=O)[nH]1 [5-FU, 5-fluorouracil] | 6 | 2 | – | – | – | – | – | – | – | – |
| slightly reduced | did not block | reduced | induced | – | Cn1cc(C2=C(c3ccc(Cl)cc3Cl)C(=O)NC2=O)c2ccccc21 [SB-216763] | – | – | did not induce | no affect | no affect | no effect | no effect | no effect | equally effective | – |
| – | – | – | – | – | O=C1NC(=O)C(c2ccccc2[N+](=O)[O-])=C1Nc1ccc(O)c(Cl)c1 [SB-415286] | – | – | did not induce | no affect; also recorded: no effect | no affect; also recorded: no effect | – | – | no effect | – | – |
| – | – | – | – | no changes | COc1cc([C@@H]2c3cc4c(cc3[C@@H](O[C@@H]3O[C@@H]5CO[C@@H](C)O[C@H]5[C@H](O)[C@H]3O)[C@H]3COC(=O)[C@H]23)OCO4)cc(OC)c1O [etoposide] | 6 | 2 | – | – | – | – | – | – | – | failed to induce apoptosis |

— patent publication US20110293746A1, “Modulation of Gsk-3Beta and Method of Treating Proliferative Disorders” (Agency For Science, Technology and Research, priority 2004, published 2011)
